This is an account of results in patent US9056875B2, “Substituted pyrazolo[3′,4′:4,5]thieno[2,3-C]pyridazin-3-amine analogs as positive allosteric modulators of the muscarinic acetylcholine receptor M4” (Vanderbilt University, priority 2012, dated 2015).

Read-outs that look alike come from different tables or passages of the source.

The conditions of series [1]: patients treated with AChE inhibitor; cited from earlier work.
For series [2] the following is noted: Alzheimer's disease patients; cited from earlier work.
The conditions of series [3]: cited from earlier work.
Another series addresses T1, mAChR rM4 (Rattus norvegicus, UniProt P08485).
T1 construct: expressed in transfected cells
T1 sequence (P08485 1-478): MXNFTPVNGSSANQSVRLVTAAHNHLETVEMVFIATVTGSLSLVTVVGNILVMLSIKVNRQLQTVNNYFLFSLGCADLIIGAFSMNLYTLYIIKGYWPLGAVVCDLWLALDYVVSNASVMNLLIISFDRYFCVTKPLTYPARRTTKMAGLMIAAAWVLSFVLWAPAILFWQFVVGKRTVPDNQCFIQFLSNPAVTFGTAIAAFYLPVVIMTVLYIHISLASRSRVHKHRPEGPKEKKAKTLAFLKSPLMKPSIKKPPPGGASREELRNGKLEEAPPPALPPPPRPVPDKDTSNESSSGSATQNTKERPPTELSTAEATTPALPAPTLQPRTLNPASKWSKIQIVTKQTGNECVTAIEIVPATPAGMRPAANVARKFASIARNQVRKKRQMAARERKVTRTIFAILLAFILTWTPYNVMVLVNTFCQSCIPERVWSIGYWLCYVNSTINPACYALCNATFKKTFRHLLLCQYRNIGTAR
As to the kind of experiment: mAChR rM4 cell-based functional assay (calcium mobilization, potentiation of EC20 acetylcholine response). Conditions: for Emax at 30 µM: %ACh maximum at 30 μM; for EC50: rM4-transfected CHO-K1 cells, positive allosteric modulation of EC20 ACh response. The source says: Chinese hamster ovary (CHO-K1) cells stably expressing rat (r)M1 were purchased from the American Type Culture Collection and cultured according to their indicated protocol. CHO cells stably expressing human (h)M2, hM3, and hM5 were described previously (Levey A I, et al., (1991) J Neurosci 11:3218-3226.); hM1 and hM4 cDNAs were purchased from Missouri S&T cDNA Resource; rM4 cDNA was provided by T. I. Bonner (National Institutes of Health, Bethesda, Md.). rM2 and rM3 were cloned from a rat brain cDNA library and sequence verified. hM1, rM2, rM3, hM4, and rM4 cDNAs were used to stably transfect CHO-K1 cells purchased from the American Type Culture Collection using Lipofectamine® 2000. To make stable rM2, hM2, rM3, hM4, and rM4 cell lines for use in calcium mobilization assays, these cells also were stably transfected with a chimeric G-protein (Gqi5) (provided by B. R. Conklin, University of California, San Francisco) using Lipofectamine® 2000. rM1, hM1, rM3, hM3, rM5, and hM5 cells were grown in Ham's F-12 medium containing 10% heat-inactivated fetal bovine serum (FBS), 20 mM HEPES, and 50 μg/mL G418 sulfate. rM2-Gqi5, hM2-Gqi5, and hM4-Gqi5 cells were grown in the same medium also containing 500 μg/mL hygromycin B. Stable rM4-Gqi5 cells were grown in DMEM containing 10% heat-inactivated FBS, 20 mM HEPES, 400 μg/mL G418 sulfate, and 500 μg/mL Hygromycin B.
For high throughput measurement of agonist-evoked increases in intracellular calcium, CHO-K1 cells stably expressing the target muscarinic receptor were plated in growth medium lacking G418 and hygromycin at 15,000 cells/20 μL/well in Greiner 384-well black-walled, tissue culture (TC)-treated, clear-bottom plates (VWR). Cells were incubated overnight at 37° C. and 5% CO2. The next day, cells were washed using an ELX 405 (BioTek) with four washes (80 μL) of assay buffer then aspirated to 20 μL. Next, 20 μL of 16 μM Fluo-4/acetoxymethyl ester (Invitrogen, Carlsbad, Calif.) prepared as a 2.3 mM stock in DMSO and mixed in a 1:1 ratio with 10% (w/v) Pluronic F-127 and diluted in assay buffer was added to the wells and the cell plates were incubated for […] at 37° C. and 5% CO2. Dye was removed by washing with the ELX 405 (four 80 μL washes of assay buffer) then aspirated to 20 μL. Compound master plates were formatted in an 11 point CRC format (1:3 dilutions) in 100% DMSO with a starting concentration of 10 mM using the BRAVO liquid handler (Agilent). Test compound CRCs were then transferred to daughter plates (240 nL) using the Echo acoustic plate reformatter (Labcyte, Sunnyvale, Calif.) and then diluted into assay buffer (40 μL) to a 2× stock using a Thermo Fisher Combi (Thermo Fisher Scientific, Waltham, Mass.).
Calcium flux was measured using the Functional Drug Screening System (FDSS) 6000 (Hamamatsu Corporation, Tokyo, Japan) as an increase in the fluorescent static ratio. Compounds were applied to cells (20 μL, 2×) using the automated system of the FDSS 6000 at 4 s into the 300 s protocol and the data were collected at 1 Hz. At 144 s into the 300 s protocol, 10 μL of an EC20 concentration of the muscarinic receptor agonist acetylcholine was added (5×), followed by the addition of 12 μL an EC80 concentration of acetylcholine at the 230 s time point (5×). Agonist activity was analyzed as a concentration-dependent increase in calcium mobilization upon compound addition. Positive allosteric modulator activity was analyzed as a concentration-dependent increase in the EC20 acetylcholine response. Antagonist activity was analyzed as a concentration-dependent decrease in the EC80 acetylcholine response. Concentration-response curves were generated using a four-parameter logistical equation in XLfit™ curve fitting software (IDBS, Bridgewater, N.J.) for Excel (Microsoft, Redmond, Wash.) or Prism (GraphPad Software, Inc., San Diego, Calif.). […]

With `Nc1c2c(nc3ccccc13)CCCC2` [tacrine], the “hepatotoxicity with elevated liver transaminases observed in patients” value in series [1] was “about 30 % of patients”.

Turning to `CCCCCCOc1nsnc1C1=CCCN(C)C1` [xanomeline], in series [2], the “psychotic behavioral symptoms such as delusions, suspiciousness, vocal outbursts, and hallucinations” value is “reduce psychotic behavioral symptoms”; the “treatment induced side effects” value was “gastrointestinal effects”. The catalepsy result in series [3] (animal models) is “without causing catalepsy”. In addition, the “activity in animal models” value in series [3] (compared with known antipsychotic drugs) is “active in animal models with similar profiles to known antipsychotic drugs”.

Consider `Cc1nnc2sc3c(NCc4ccc5c(c4)OCCO5)nn(C)c3c2c1C` [Compound 13, N-((2,3-dihydrobenzo[b][1,4]dioxin-6-yl)methyl)-1,7,8-trimethyl-1H-pyrazolo[3′,4′:4,5]thieno[2,3-c]pyridazin-3-amine], for which the Emax – broadly, the maximal effect, on the per cent scale that the assay sets – at 30 µM on mAChR rM4 worked out at 55%. At mAChR rM4 (read-out: pEC50 (converted)), the EC50 was 12.9 nM.

As for `Cc1nnc2sc3c(NC4CCNCC4)nn(C)c3c2c1C` [Compound 18, 1,7,8-trimethyl-N-(piperidin-4-yl)-1H-pyrazolo[3′,4′:4,5]thieno[2,3-c]pyridazin-3-amine], at mAChR rM4, the Emax at 30 µM is 31%. Moreover, the EC50 at mAChR rM4 (read-out: EC50) was determined as 5200 nM.

`Cc1nnc2sc3c(NCC4CCN(C(=O)OC(C)(C)C)CC4)nn(C)c3c2c1C` [Compound 21, tert-butyl 4-(((1,7,8-trimethyl-1H-pyrazolo[3′,4′:4,5]thieno[2,3-c]pyridazin-3-yl)amino)methyl)piperidine-1-carboxylate]: the Emax at 30 µM on mAChR rM4 turned out to be 42%. Further, the EC50 on mAChR rM4 (read-out: EC50) was 710 nM.
